In patent US6378981B1, “Surfactant for inkjet service station wiper fluid” (Hewlett-Packard Company, priority 2000, dated 2002):

How the values were obtained:
[1] = Separation of surfactant from PEG400, observed for seven days; format: physicochemical; details: 1 wt. % solution in PEG400, 50 ml tubes, observed daily for seven days
Description: 1 wt. % solutions of C8AO (Hexyl dimethyl amine oxide), C10AO (NN dimethyl octyl amine oxide), C14AO (NN Dimethyl dodecyl amine oxide), […] and C18AO (NN Dimethyl-N-oxide hexadecane amine) with PEG400 were prepared and placed in 50 ml tubes. The tubes were observed daily for seven days. No separation of surfactant from PEG400 was observed.

[2] = Description: Non-ionic surfactants (Tergitol 15-S-5, Surfynol465), an amphoteric surfactant (Mackam OCT-50), an anionic surfactant (Dodecylbenzene sulfonate Na) and a cationic surfactant (Cetyl trimethyl ammonium bromide) were tested for solubility in an inkjet test ink having the following formulation.
The pass/fail criteria were the absence or presence of insoluble material on the bottom on the container after three days at room temperature.

[3] = Wetting effectiveness of surfactants on orifice (nozzle) plate; format: physicochemical; parameters: key: Good: Wetting is considered “good” when a very thick layer of ink spreads out evenly on the orifice plate
Description: To determine an effective surfactant concentration range in a servicing fluid, the following procedure was used. A think uniform coat of test servicing fluid was applied to the nozzle plate. 0.5 μl of drop test ink was then applied to the coated nozzle plate and the maximum dot diameter was then measured.
Wetting is considered “good” when a very thick layer of ink spreads out evenly on the orifice plate.

Compound	Separation of surfactant from PEG400 [1]	Compatibility [2]	also measured
CCCCCCCCCCCCCCCC[N+](C)(C)[O-] [NN Dimethyl-N-oxide hexadecane amine]	No separation		
CCCCCCCCCCCCCC[N+](C)(C)[O-] [Myristyl dimethyl amine oxide]	No separation		
CCCCCCCCCCCCCCCC[N+](C)(C)C.[Br-] [Cetyl trimethyl ammonium bromide]		Fail	
CCCCCCCCCCCC[N+](C)(C)[O-] [C14AO, NN Dimethyl dodecyl amine oxide]	No separation		
CCCCCC[N+](C)(C)[O-] [Hexyl dimethyl amine oxide]	No separation	Pass	
CCCCCCCC[N+](C)(C)[O-] [Dimethyl Octylamine oxide]	No separation		Wetting ([3]; 0.01 wt. % surfactant in PEG 300 servicing fluid): Good; Wetting ([3]; 0.1 wt. % surfactant in PEG 300 servicing fluid): Good; Wetting ([3]; 1.0 wt. % surfactant in PEG 300 servicing fluid): Poor; Wetting ([3]; 2.0 wt. % surfactant in PEG 300 servicing fluid): Poor; Wetting ([3]; 3.0 wt. % surfactant in PEG 300 servicing fluid): Poor; Wetting ([3]; 4.0 wt. % surfactant in PEG 300 servicing fluid): Poor
